What all share (assay type): cell-based
The target of one assay is HDAC1 (Homo sapiens, UniProt Q13547). The assay is described as follows: HDAC1 protein level in breast cancer cell lines, Western blot. The note with it: MDA-MB-468 cells, 14 h. As to the method: (§1) FIG. 3A: Western blot showing HDAC protein levels in MDA-MB-468 cells treated with the indicated concentration of XZ9002 for 14 h. FIG. 3B: pretreatment with 1 μM MG132, or 10 μM VHL032 for 1 h blocked the degradation of HDAC3 by XZ9002 {125 nM}. […] NC: XZ9002-NC. FIG. 3C: time-dependent experiment in MDA-MB-468 cells after treatment with 125 nM XZ9002 at the indicated time points. FIG. 3D: MDA-MB-468 cells were incubated with 125 nM of XZ9002 for 14 h followed by drug washout, and incubation of the cells in drug-free medium for an additional time. Data are presented as representative figures of two independent experiments.
Chain of HDAC1 (Q13547 whole entry): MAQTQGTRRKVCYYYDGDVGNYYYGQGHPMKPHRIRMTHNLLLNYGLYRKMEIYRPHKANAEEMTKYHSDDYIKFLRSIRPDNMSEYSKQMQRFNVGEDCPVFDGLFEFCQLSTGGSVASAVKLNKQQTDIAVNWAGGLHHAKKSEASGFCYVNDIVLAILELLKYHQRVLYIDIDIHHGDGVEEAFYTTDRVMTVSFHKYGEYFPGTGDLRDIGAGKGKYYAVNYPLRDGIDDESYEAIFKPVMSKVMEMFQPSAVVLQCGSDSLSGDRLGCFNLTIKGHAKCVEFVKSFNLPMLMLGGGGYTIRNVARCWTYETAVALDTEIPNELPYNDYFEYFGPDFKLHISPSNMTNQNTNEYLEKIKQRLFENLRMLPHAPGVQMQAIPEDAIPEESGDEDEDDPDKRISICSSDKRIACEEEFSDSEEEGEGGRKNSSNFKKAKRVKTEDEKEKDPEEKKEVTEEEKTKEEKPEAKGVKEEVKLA
(§2) The culture of the triple-negative breast cancer cell line MDA-MB-468 and the ER+ breast cancer cell line T47D was exposed to vehicle control (DMSO) and the indicated compounds at specified concentrations for 14 h. Cells were lysed for WB with antibodies against the indicated proteins. Antibodies against acetylated histones at specific sites (H3K27 and H4K5) and acetyl-lysine were used to assess levels of histone acetylation. Levels of HDAC3 were normalized against that of tubulin and % of HDAC3 protein levels in cells treated with the indicated compounds relative to that in DMSO control is shown.
Cell lines were obtained from ATCC and subsequently authenticated. […]
For orientation: In western blotting, separated proteins are transferred to a membrane and probed.

Another assay concerns the target HDAC2 (Homo sapiens, UniProt Q92769). The experiment in a line: HDAC2 protein level in breast cancer cell lines, Western blot. Particulars: MDA-MB-468 cells, 14 h. As to the method: as §1, §2
FIGS. 8A-8B show the cellular activity of XZ9002. […] Cells were lysed for WB. The relative HDAC3 protein level in each sample is shown. […]

In assay [1] the test system is histone acetylation (H3K27ac, H4K5ac, acetyl-lysine). The assay is described as follows: Histone acetylation in cells, Western blot. The note with it: MDA-MB-468 cells; only moderate effects compared to 15 and CRBN-based PROTACs. The procedure: as §2
Cell lines were obtained from ATCC and subsequently authenticated. Cells were cultured with DMEM supplemented with 10% bovine calf serum, penicillin to 10 units/mL, and streptomycin to 10 μg/mL. For viability assays, 5,000 cells/well were seeded in 96-well plates. Compounds at a specified concentration or DMSO were added 24 h later. Viability assays were performed 72 h after compound addition using the CellTiter-Glo reagents (Promega). For colony formation assay, cells (˜1,000 cells/well) were seeded in a 24-well plate in quadruplicates. At 24 h after seeding, DMSO, XZ9002, or XZ9002-NC were added at a specified concentration. […]

Assay [2] deals with NCI-60 panel of 60 cancer lines. The experiment in a line: NCI-60 cell line panel proliferation. The note with it: five doses; leukemia, NSCLC, colon, CNS, melanoma, ovarian, renal, prostate and breast cancer lines. As to the method: The indicated cancer cell lines were treated with XZ9002 at five different doses. The percentage growth relative to the cell numbers before compound exposure was plotted against the XZ9002 concentrations in the log scale.

For the next assay, the target named is HDAC3 (Homo sapiens, UniProt O15379). The experiment in a line: HDAC3 degradation in breast cancer cell lines, Western blot. Details: endogenous in cells; host or cells: MDA-MB-468, T47D, MCF7. Particulars: MDA-MB-468 cells. An excerpt: Data are presented as representative figures of two independent experiments.
Chain of HDAC3 (O15379 whole entry): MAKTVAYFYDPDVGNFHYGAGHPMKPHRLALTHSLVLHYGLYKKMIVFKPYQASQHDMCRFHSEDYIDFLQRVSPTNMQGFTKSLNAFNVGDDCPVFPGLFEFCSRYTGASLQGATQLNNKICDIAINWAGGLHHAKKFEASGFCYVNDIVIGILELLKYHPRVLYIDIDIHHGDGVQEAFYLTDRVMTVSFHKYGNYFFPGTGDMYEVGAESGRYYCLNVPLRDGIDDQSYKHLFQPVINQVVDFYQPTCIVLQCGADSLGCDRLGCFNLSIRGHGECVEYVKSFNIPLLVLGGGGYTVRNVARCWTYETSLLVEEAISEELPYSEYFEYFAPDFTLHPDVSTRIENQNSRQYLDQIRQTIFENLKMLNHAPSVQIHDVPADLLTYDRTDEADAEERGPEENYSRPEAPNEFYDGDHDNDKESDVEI
Chain of HDAC3 (Q9Y618 395-498 partner limits assumed): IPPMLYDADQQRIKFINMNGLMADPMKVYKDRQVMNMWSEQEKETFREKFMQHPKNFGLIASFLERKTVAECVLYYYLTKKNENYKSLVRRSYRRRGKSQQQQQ
Cells were lysed for WB with antibodies against the indicated proteins. Antibodies against acetylated histones at specific sites (H3K27 and H4K5) and acetyl-lysine were used to assess levels of histone acetylation.
Cells were lysed for WB. […] The indicated BC cell lines were exposed to DMSO, XZ9002, or XZ9002-NC at the indicated concentrations. Colonies were fixed and stained.
Cell lines were obtained from ATCC and subsequently authenticated. Cells were cultured with DMEM supplemented with 10% bovine calf serum, penicillin to 10 units/mL, and streptomycin to 10 μg/mL. For viability assays, 5,000 cells/well were seeded in 96-well plates. […] For colony formation assay, cells (˜1,000 cells/well) were seeded in a 24-well plate in quadruplicates. […] Medium was replaced with freshly prepared medium containing DMSO, XZ9002 or XZ9002-NC every five days until visible colonies appeared, typically in 15 to 20 days after initial cell seeding. Cells were fixed with 4% paraformaldehyde for 15 min and stained with 2% methylene blue in 20% ethanol for 30 min to 1 h. The cells were washed twice with distilled water and dried in air. For western blotting, cell cultures were exposed to compounds as indicated in relevant figures. Medium was removed from culture plate, and 1 x passive lysis buffer was then added, the plates were frozen at −80° C. overnight and thawed at room temperature. The total cell lysates were mixed with a one fifth volume of 6x SDS sample buffer, heated at 95° C. for 5 min and cooled on ice. The lysates were cleared by centrifugation and then subjected to SDS-PAGE and western blotting essentially as described.

Chain of HDAC2 (Q92769 whole entry): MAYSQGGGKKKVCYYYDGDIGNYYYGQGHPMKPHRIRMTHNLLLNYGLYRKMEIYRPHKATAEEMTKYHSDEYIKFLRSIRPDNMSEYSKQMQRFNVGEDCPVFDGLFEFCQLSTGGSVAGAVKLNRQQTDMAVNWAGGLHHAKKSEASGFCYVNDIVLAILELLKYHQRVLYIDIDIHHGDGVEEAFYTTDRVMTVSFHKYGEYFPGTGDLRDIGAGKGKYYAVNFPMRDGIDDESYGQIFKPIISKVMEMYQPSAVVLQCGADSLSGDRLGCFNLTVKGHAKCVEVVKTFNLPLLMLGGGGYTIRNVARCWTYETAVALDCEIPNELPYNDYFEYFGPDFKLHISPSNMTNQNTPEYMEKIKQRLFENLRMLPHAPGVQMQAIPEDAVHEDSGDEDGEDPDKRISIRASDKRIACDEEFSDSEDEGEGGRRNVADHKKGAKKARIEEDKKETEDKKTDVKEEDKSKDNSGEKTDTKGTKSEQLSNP

On to `CCCNNC(=O)c1ccc(-c2ccc(NC(=O)CCCCCCC(=O)N[C@H](C(=O)N3C[C@H](O)C[C@H]3C(=O)N[C@@H](C)c3ccc(-c4scnc4C)cc3)C(C)(C)C)cc2)cc1` [XZ9002, N^1—((S)-1-((2S,4R)-4-hydroxy-2-(((S)-1-(4-(4-methylthiazol-5-yl)phenyl)ethyl)carbamoyl)pyrrolidin-1-yl)-3,3-dimethyl-1-oxobutan-2-yl)-N^5-(4′-(2-propylhydrazine-1-carbonyl)-[1,1′-biphenyl]-4-yl)octanediamide], for which, at HDAC1, the “change in HDAC1 protein level” value was “no significant changes”. Besides, the “change in HDAC2 protein level” value at HDAC2 is listed as “no significant changes”. The histone acetylation result in assay [1] is “dose-dependently increased”. The inhibition of proliferation result in assay [2] is “effectively inhibits the proliferation”. For the same molecule, the “start of HDAC3 degradation” value on HDAC3 (125 nM) is reported as at most 2 h. Besides, the “time for HDAC3 to rebound to the steady level after washout” value on HDAC3 (125 nM for 14 h, then drug-free medium) was “more than 12 h”. This molecule also returned an HDAC3 degraded on HDAC3 (125 nM, 8 h) of 70%. For the same molecule, the DC50 at HDAC3 (14 h treatment, read-out: HDAC3 DC50 (the concentration for 50% protein degradation)) is 42 nM. The “HDAC3 degradation after pre-incubation with proteasome inhibitor MG132” value on HDAC3 (MG132 1 μM for 1 h, XZ9002 125 nM) was “blocked”. Also, the “HDAC3 degradation after pre-incubation with VHL ligand VH032” value on HDAC3 (VH032 10 μM for 1 h, XZ9002 125 nM) is “blocked”.
